Results on one molecule are retold here after patent US20250332149A1, “PIPERIDINE COMPOUNDS AND PHARMACEUTICAL COMPOSITIONS” (Lumos Pharma, Inc., priority 2024, published 2025).

Each structure is given as a SMILES string.

Holding throughout (format): in vivo, human
Assay [1] has as its system serum IGF-1. The experiment in a line: Phase 1 study Part 2: PD, serum IGF-1 concentration fasted vs fed. Here is the method: The serum IGF-1 concentration values remained stable over the sampling time interval post dose. At pre-dose, mean (SD) serum […] concentration values were 209.2 (54.28) ng/mL for Treatment A and 188.8 (26.11) ng/mL for Treatment B. At 24 h post-dose, the serum GH concentration value peaked at 244.7 (37.66) ng/mL in Treatment A and 220.8 (43.50) ng/mL in Treatment B.

Assay [2] relates to serum growth hormone (GH). As to the kind of experiment: Phase 1 study Part 2: PD, serum GH concentration fasted vs fed. To be noted: for serum GH concentration, mean (SD): pre-dose. The source says: • Part 1: To evaluate PD (GH response) of the new LUM-201 formulation as capsule (test). • Part 2: To measure PD (GH response) to LUM-201 administered as capsule (test) in fasted versus fed state. PD Results (pt 2): Following the administration of LUM-201, the serum GH concentration values increased post dose. At pre-dose, mean (SD) serum GH concentration values were 0.2121 (0.2192) ng/mL in Treatment A and 0.1088 (0.09518) ng/mL in Treatment B. The serum GH concentration value peaked at 22.18 (22.24) ng/mL in Treatment A at 1 h post-dose and 14.10 (13.48) ng/mL in Treatment B at 1.5 h post-dose. The serum GH concentration values in Treatment A were consistently higher compared to Treatment B over time and approached the peak concentration sooner at 1 h post-dose.

Assay [3] relates to serum IGF-1. The experiment in a line: Phase 1 study Part 1: PD, serum IGF-1 concentration. The method, then: The serum IGF-1 concentration values remained stable over the sampling time interval post dose. At pre-dose, mean (SD) serum IGF-1 concentration values were 200.9 (50.41) ng/mL for Treatment A, 192.6 (50.55) ng/mL for Treatment B, 192.5 (47.67) ng/mL for Treatment C, and 195.8 (47.16) ng/mL for Treatment D. At 24 h post-dose, the serum concentration values rose to 224.7 (48.70) ng/mL in Treatment A, 224.2 (50.24) ng/mL in Treatment B, 230.4 (60.81) ng/mL in Treatment C, and 223.7 (56.75) ng/mL in Treatment D.

The mark [4] stands for this setting: Part 2, Treatment A (fasted state) and Treatment B (fed state).

`CC(C)(N)C(=O)N[C@H](COCc1ccccc1)C(=O)N1CCC2(CC1)CN(S(C)(=O)=O)c1ccccc12` [LUM-201, N-[1(R)-[(1,2-dihydro-1-methanesulfonylspiro[3H-indole-3,4′-piperdin]-yl)carbonyl]-2-(phenylmethyloxy)ethyl]-2-amino-2-methylpropanamide methanesulfonate]: the “serum IGF-1 concentration” value is listed as 244.7 (37.66) ng/mL in the assay on serum IGF-1 [1] (24 h post-dose, Part 2, Treatment A: 85.3 mg capsule, fasted); 220.8 (43.50) ng/mL with serum IGF-1 [1] (24 h post-dose, Part 2, Treatment B: 85.3 mg capsule after high-fat meal); 209.2 (54.28) ng/mL in the assay on serum IGF-1 [1] (pre-dose, Part 2, Treatment A: 85.3 mg capsule, fasted); 188.8 (26.11) ng/mL in the assay with serum IGF-1 [1] (pre-dose, Part 2, Treatment B: 85.3 mg capsule after high-fat meal). Further, in the assay on serum IGF-1 [1] (setting [4]), the “serum IGF-1 concentration values and trend, fasted vs fed” value is listed as “comparable”. The “serum GH concentration, peak, mean (SD)” value in assay [2] (1 h post-dose, Part 2, Treatment A: 85.3 mg capsule, fasted) is on record as 22.18 (22.24) ng/mL; in assay [2] (1.5 h post-dose, Part 2, Treatment B: 85.3 mg capsule after high-fat meal), 14.10 (13.48) ng/mL. In addition, in assay [2] (setting [4]), the “serum GH concentrations 1.5 hours after administration, fasted vs fed” value is on record as “comparable”. Moreover, the “serum GH concentration, mean (SD)” value in assay [2] (Part 2, Treatment A: 85.3 mg capsule, fasted) was 0.2121 (0.2192) ng/mL; in assay [2] (Part 2, Treatment B: 85.3 mg capsule after high-fat meal), 0.1088 (0.09518) ng/mL. The “serum IGF-1 concentration, mean (SD)” value is reported as 224.7 (48.70) ng/mL in the assay on serum IGF-1 [3] (24 h post-dose, Part 1, Treatment A: five 18 mg tablets (90 mg), fasted); 224.2 (50.24) ng/mL with serum IGF-1 [3] (24 h post-dose, Part 1, Treatment B: 85.3 mg whole capsule, fasted); 230.4 (60.81) ng/mL in the assay on serum IGF-1 [3] (24 h post-dose, Part 1, Treatment C: 85.3 mg capsule contents (dry), fasted); 223.7 (56.75) ng/mL with serum IGF-1 [3] (24 h post-dose, Part 1, Treatment D: 85.3 mg capsule contents in banana puree); 200.9 (50.41) ng/mL in the assay with serum IGF-1 [3] (pre-dose, Part 1, Treatment A: five 18 mg tablets (90 mg), fasted); 192.6 (50.55) ng/mL in the assay on serum IGF-1 [3] (pre-dose, Part 1, Treatment B: 85.3 mg whole capsule, fasted). Moreover, the “serum IGF-1 concentration, mean (SD)” value is reported as 192.5 (47.67) ng/mL in the assay on serum IGF-1 [3] (pre-dose, Part 1, Treatment C: 85.3 mg capsule contents (dry), fasted) and 195.8 (47.16) ng/mL in the assay on serum IGF-1 [3] (pre-dose, Part 1, Treatment D: 85.3 mg capsule contents in banana puree).
